Experimental data: paper PMC9862597, “Anti-Colorectal Cancer Effects of a Novel Camptothecin Derivative PCC0208037 In Vitro and In Vivo” (Pharmaceuticals, 2022)

Tests used:
HT-29 cells = assay: MTT cell viability assay, HT-29; type: cell-based; conditions: Homo sapiens; HT-29, MTT, 72 h, n = 3
Procedure: (§1) Cell viability was assessed using the MTT assay, as previously reported. Briefly, colorectal cancer cells (LS180, HCT116, CT-26, and HT-29 cells) were plated onto 96-well plates at 3000 cells per well and incubated overnight. […] Control cells were treated with DMSO at a final concentration of 0.1%. Cells were cultured with the compounds or medium for 72 h. The cells were then treated with MTT. The medium was then decanted, and DMSO was added and shaken until the color reaction was complete. The […] were read using a Molecular Devices SpectraMax M5 (San Jose, CA, USA) at OD570 nm. The half maximal inhibitory concentration (IC50) was calculated.

recombinant Topo I = biological target: T1, recombinant Topo I (Homo sapiens, UniProt P11387); assay: Topoisomerase I activity assay (DNA relaxation); type: biochemical; conditions: PCC0208037 100 and 10 nmol/L, SN-38 100 nmol/L, CPT-11 100 nmol/L; 30 min, 37 °C
T1 construct: purchased TopoGEN, Inc (Buena Vista, CO, USA) TG1018
T1 sequence (P11387 1-765): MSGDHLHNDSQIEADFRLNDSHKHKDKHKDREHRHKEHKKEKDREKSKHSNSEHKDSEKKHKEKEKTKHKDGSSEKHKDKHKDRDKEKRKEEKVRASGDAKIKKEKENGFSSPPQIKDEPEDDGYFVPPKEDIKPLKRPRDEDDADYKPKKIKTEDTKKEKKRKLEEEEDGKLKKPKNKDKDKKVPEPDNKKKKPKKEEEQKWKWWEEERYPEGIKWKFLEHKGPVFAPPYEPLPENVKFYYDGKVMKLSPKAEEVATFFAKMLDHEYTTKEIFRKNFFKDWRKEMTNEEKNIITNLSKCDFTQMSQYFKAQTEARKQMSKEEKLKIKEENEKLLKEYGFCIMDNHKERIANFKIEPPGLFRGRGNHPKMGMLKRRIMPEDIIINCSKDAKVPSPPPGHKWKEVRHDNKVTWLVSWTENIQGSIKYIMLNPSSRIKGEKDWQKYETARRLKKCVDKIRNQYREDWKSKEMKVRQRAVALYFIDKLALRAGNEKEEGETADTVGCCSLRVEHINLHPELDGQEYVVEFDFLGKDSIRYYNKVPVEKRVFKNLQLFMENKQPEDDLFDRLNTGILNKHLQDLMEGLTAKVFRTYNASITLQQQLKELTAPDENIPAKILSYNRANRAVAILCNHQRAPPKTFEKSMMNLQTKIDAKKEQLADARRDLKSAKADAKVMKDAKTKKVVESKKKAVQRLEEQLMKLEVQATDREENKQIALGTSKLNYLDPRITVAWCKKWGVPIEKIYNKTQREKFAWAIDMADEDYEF
Procedure: To determine whether PCC0208037 inhibited Topo I activity, a DNA relaxation assay was conducted. In this assay, supercoiled plasmid DNA was relaxed and nicked by recombinant Topo I, while no nicked DNA would be found when the Topo I enzyme was inhibited.
A Topoisomerase I Drug Screening Kit was used to detect the inhibitory activity of PCC0208037 against Topo I in the cell-free system. 1 IU Topo I and 250 ng of supercoiled plasmid DNA were pre-incubated with DMSO, PCC0208037 (100 nmol/L and 10 nmol/L), SN-38(100 nmol/L), or CPT (100 nmol/L) in a reaction buffer with a final volume of 20 μL and incubated for 30 min at 37 °C; then, the reaction was stopped by the addition of 2 ul of 10% SDS. Then, proteinase K was added to 50 ug/mL, incubated for 15 min at 37 °C, and 0.1 vol. of a loading buffer (0.25% bromophenol blue, 50% glycerol) was added. The supercoiled, relaxed, or nicked DNA was separated by 1% agarose gel in a 1 TAE (Tris-Acetate-EDTA) buffer. Ethidium bromide-stained agarose gel was photographed using Gel Doc XR.
Figure 4 Inhibition of Topo I activity by PCC0208037. […] Plasmid DNA was separated by an agarose gel and stained with ethidium bromide.

LS180 cells = assay: MTT cell viability assay, LS180; type: cell-based; conditions: Homo sapiens; LS180, MTT, 72 h, n = 3; read-out: IC50
Procedure: as §1

CT-26 cells = assay: MTT cell viability assay, CT-26; type: cell-based; conditions: Mus musculus, CT26; CT-26, MTT, 72 h, n = 3
Procedure: as §1

[1] = Pharmacokinetic study, single intravenous dose; conditions: for AUCinf / AUClast: n = 3
Procedure: Blood samples were collected at 0.083 h, 0.25 h, 0.5 h, 1 h, 2 h, 4 h, 8 h, and 12 h after administration. Plasma was prepared after centrifugation at 6000× g for 5 min and then stored at −20 °C for further analysis.

HCT116 cells = assay: MTT cell viability assay, HCT116; type: cell-based; conditions: Homo sapiens, HCT-116; HCT116, MTT, 72 h, n = 3; read-out: IC50
Procedure: as §1

LS180 xenograft tumor = assay: Subcutaneous LS180 xenograft model; type: in vivo, nude mice; conditions: PCC0208037 5, 10, 20 mg/kg; CPT-11 10 mg/kg; i.v. once every 3 days
Procedure: To establish xenograft tumor models, RPMI 1640 and Matrigel were mixed at a 1:1 ratio. Colorectal cancer cells (LS180: 5 × 10^6 cells) were added to 0.1 mL of the mixture, and male nude mice were subcutaneously injected with colorectal cancer cells on the right side. […] Tumor volume and animal weight were measured every 3 days and continued until the end of the experiments. All mice were euthanized by cervical dislocation at the end of the experiment, and the xenograft tumors were removed and weighed.
Figure 8 Anti-tumor effect of PCC0208037 in the LS180 xenograft tumor model. (A) Representative tumors removed after the last treatment in each treatment group. (B) Body weight gain curves of mice bearing an LS180 xenograft tumor. (C) Tumor weights in the different groups of mice after 15 d of treatment.

[2] = PCC0208037- and CPT-11-induced toxicity in mice; conditions: 50 mg/kg/day i.p. for four days
[3] = metabolite SN-38 in plasma after 10 mg/kg CPT-11 i.v.
[4] = metabolite SN-38 in plasma after 10.65 mg/kg PCC0208037 i.v.
[5] = BALB/c, mouse, plasma, iv, 10 mg/kg
[6] = CPT-11 in plasma, 10 mg/kg CPT-11 i.v.

inhibition of Topo I activity (supercoiled plasmid DNA relaxation) (recombinant Topo I)	AUCinf [1, 3] [H * ng/mL]	AUClast [1, 3] [H * ng/mL]	AUCinf [1, 4] [H * ng/mL]	AUClast [1, 4] [H * ng/mL]	Structure (SMILES)	IC50 (HT-29 cells) [µM]	IC50 (LS180 cells) [µM]	IC50 (CT-26 cells) [µM]	IC50 (HCT116 cells) [µM]	effect on body weight of tumor-bearing mice (LS180 xenograft tumor)	colorectal tissue histomorphological examination (H&E) ([2]; colon after 7 days)	diarrhea score ([2]; later stage of study, p < 0.05 on 7th day)	mortality ([2]; seven-day observation)	recovery of body weight and food intake decrease ([2]; seven-day observation)	Cmax [1, 5] [ng/mL]	Tmax [1, 5] [h]	AUCinf [1, 6] [H * ng/mL]	AUClast [1, 6] [H * ng/mL]
Topo I activity was inhibited	431.5 ± 62.5	394.6 ± 46.32	919.7 ± 176.1	905.5 ± 173.7	CCc1c2c(nc3ccc(O)cc13)-c1cc3c(c(=O)n1C2)COC(=O)[C@]3(O)CC [SN-38]	0.35 ± 0.02	0.12 ± 0.01	0.44 ± 0.66	3.58 ± 0.21	–	–	–	–	–	–	–	–	–
–	–	–	–	–	CCc1c2c(nc3ccc(OC(=O)N4CCC(N5CCCCC5)CC4)cc13)-c1cc3c(c(=O)n1C2)COC(=O)[C@]3(O)CC [CPT-11, Irinotecan]	> 50	3.17 ± 0.58	> 50	> 50	significant reduction in body weight	extensive colorectal tissue damage	higher in the CPT-11-treated mice than in the PCC0208037-treated mice	No animal died	no apparent trend of recovery was observed	481 ± 112	3.24 ± 2.19	393.1 ± 64.4	360.5 ±52.9
